Data: patent publication US20220187282A1, “CARDIOMYOCYTE PROLIFERATION” (The Council of the Queensland Institute of Medical Research, priority 2019, published 2022)
Read-outs that look alike come from different tables or passages of the source.

Legend:
immature hCOs = assay: immature hCO screen, force of contraction; format: cell-based, human; details: 2 days
Procedure: The pole deflection was used to approximate the force of contraction as per (Mills et al., 2017a). A Leica DMi8 inverted high content Imager was used to capture a 10 s time-lapse of each hCO contracting in real time at 37° C. Custom batch processing files were written in Matlab R2013a (Mathworks) to convert the stacked TIFF files to AVI, track the pole movement (using vision.PointTracker), determine the contractile parameters, produce a force-time figure, and export the batch data to an Excel (Microsoft) spreadsheet.
The compound library included 5,000 biologically annotated pre-clinical, clinical, and tool compounds. They were selected based on a combination of criteria including balancing the number of external/internal compounds, diversity of annotated targets to cover greater than 1500 biological targets, and known targets associated with cell proliferation. […] Both negative vehicle (DMSO) and positive (CHIR99021) controls were included on each plate in each experiment (FIG. 2B,C).

mature hCOs [1] = assay: mature hCO, mitosis (pH3) of cardiomyocytes; format: cell-based, human; details: 2 days, optimal concentrations
Procedure: (§1) Whole-Mount Immunostaining hCOs were fixed for 60 min with 1% paraformaldehyde (Sigma) at room temperature and washed 3× with PBS, after which they were incubated with primary antibodies (see Star Methods Table) in Blocking Buffer, 5% FBS and 0.2% Triton-X-100 (Sigma) in PBS overnight at 4° C. Cells were then washed in Blocking Buffer 2× for 2 h and subsequently incubated with secondary antibodies (see Star Methods Table) and Hoechst33342 (1:1000) overnight at 4° C. They were washed in Blocking Buffer 2× for 2 h and imaged in situ or mounted on microscope slides using Fluoromount-G (Southern Biotech).
(§2) For more detailed images an Olympus IX81 confocal microscope was used for mounted hCO imaging. For cell cycle analysis experiments 3 random fields of view were imaged and manually quantified for proliferation. These were added together to calculate the percentage of hPSC-CM proliferation in each hCO.
Hits were next validated in mature hCOs using a targeted concentration range based on their active concentrations in the initial immature hCO screen (FIG. 3A). Proliferation markers were quantified using high magnification confocal imaging as we found flow cytometry to be inaccurate in hCO (data not shown). Compounds 3, 63 and 65 had no impact on contractile force (FIG. 3B) at concentrations of 3 μM, 0.3 μM and 1 μM, respectively. […]

mature hCOs [2] = assay: mature hCO, cardiomyocyte proliferation (Ki-67 intensity, Ki-67+ α-actinin cardiomyocytes); format: cell-based, human; details: mature hCO; for Ki-67+ cardiomyocytes: 2 days, compound 3 at 3 μM, 63 at 0.3 μM, 65 at 1 μM; for proliferative response (Ki-67 intensity) with 10 μM simvastatin: 1 μM compound 65, 3 μM compound 3 or 10 μM compound 6.28; for proliferation above the optimal concentrations: above 3 μM (compound 3), above 1 μM (compound 65)
Procedure: hCOs were cultured in CTRL medium for formation for 5 days and then either kept in CTRL medium culture or changed to maturation medium (Mills et al., 2017a) comprising DMEM without glucose, glutamine and phenol red (ThermoFisher Scientific) supplemented with 4% […](without insulin) (ThermoFisher Scientific), 1% GlutaMAX (ThermoFisher Scientific), 200 μM L-ascorbic acid 2-phosphate sesquimagnesium salt hydrate and 1% Penicillin/Streptomycin (ThermoFisher Scientific), 1 mmol/L glucose and 100 μmon palmitic acid (conjugated to bovine serum albumin within B27 by incubating for 2h at 37° C., Sigma) with changes every 2-3 days.
as §1
For screening hCOs were imaged using a Leica DMi8 high content imaging microscope for in situ imaging. Custom batch processing files were written in Matlab R2013a (Mathworks) to remove the background, calculate the image intensity, and export the batch data to an Excel (Microsoft) spreadsheet.
as §2
Hits were next validated in mature hCOs using a targeted concentration range based on their active concentrations in the initial immature hCO screen (FIG. 3A). Proliferation markers were quantified using high magnification confocal imaging as we found flow cytometry to be inaccurate in hCO (data not shown). Compounds 3, 63 and 65 had no impact on contractile force (FIG. 3B) at concentrations of 3 μM, 0.3 μM and 1 μM, respectively. […] The effects of both compound 3 and compound 65 were reversible, with proliferation ceasing within 5 days of compound withdrawal (FIG. 8B). Therefore, compound 3 (FIG. 3G) and compound 65 (Goldberg et al., 2009) (FIG. 3H) are both capable of inducing bona fide cardiomyocyte proliferation in mature hCOs without adversely affecting contractile properties.

kinases [3] = target: kinases (Homo sapiens, UniProt P68400); format: biochemical; details: CSNK2A1 (CK2alpha1) Z-Lyte SP; Test Conc(μM):ATP Conc(μM) 1:5
kinases [4] = target: kinases (Homo sapiens, UniProt Q99759); format: biochemical; details: MAP3K3 (MEKK3) FRET-Lantha SP; Test Conc(μM) 1
Sequence of kinases (Homo sapiens, UniProt Q99759) (Q99759 whole entry): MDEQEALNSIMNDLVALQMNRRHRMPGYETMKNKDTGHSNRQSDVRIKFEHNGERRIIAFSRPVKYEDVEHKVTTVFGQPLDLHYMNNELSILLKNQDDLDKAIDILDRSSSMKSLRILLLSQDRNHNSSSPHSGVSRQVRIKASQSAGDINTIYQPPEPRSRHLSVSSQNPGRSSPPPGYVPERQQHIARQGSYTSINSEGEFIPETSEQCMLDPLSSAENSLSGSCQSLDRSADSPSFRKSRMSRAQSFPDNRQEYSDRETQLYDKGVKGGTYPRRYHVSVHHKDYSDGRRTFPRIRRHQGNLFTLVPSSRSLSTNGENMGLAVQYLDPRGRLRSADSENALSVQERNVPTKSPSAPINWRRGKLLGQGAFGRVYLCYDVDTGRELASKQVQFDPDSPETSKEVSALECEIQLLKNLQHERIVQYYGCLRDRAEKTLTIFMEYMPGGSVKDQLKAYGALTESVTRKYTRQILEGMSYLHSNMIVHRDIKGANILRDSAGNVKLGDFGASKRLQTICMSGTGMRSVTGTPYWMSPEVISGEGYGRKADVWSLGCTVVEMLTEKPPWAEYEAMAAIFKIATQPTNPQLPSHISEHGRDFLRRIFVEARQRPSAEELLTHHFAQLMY

kinases [5] = target: kinases (Homo sapiens, UniProt O14986); format: biochemical; details: Test Conc(μM):ATP Conc(μM) 1:10
Sequence of kinases (Homo sapiens, UniProt O14986) (O14986 whole entry): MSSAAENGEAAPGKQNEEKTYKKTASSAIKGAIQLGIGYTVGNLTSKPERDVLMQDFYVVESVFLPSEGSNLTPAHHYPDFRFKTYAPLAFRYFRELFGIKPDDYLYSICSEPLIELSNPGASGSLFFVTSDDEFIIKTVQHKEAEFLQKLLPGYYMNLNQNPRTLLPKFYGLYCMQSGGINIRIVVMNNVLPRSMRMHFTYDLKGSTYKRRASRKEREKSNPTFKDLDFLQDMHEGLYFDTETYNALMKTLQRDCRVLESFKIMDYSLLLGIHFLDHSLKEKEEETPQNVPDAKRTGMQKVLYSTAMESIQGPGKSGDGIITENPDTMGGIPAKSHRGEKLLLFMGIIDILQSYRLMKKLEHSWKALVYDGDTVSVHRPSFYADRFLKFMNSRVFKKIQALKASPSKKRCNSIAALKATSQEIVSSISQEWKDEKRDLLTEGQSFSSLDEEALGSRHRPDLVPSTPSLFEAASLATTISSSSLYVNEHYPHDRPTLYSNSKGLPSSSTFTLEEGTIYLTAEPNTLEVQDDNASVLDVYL

kinases [6] = target: kinases (Homo sapiens, UniProt P51957); format: biochemical; details: NEK4 FRET-Z-Lyte SP; Test Conc(μM):ATP Conc(μM) 1:50
kinases [7] = target: kinases (Homo sapiens, UniProt P48729); format: biochemical; details: CSNK1A1 FRET-Z-Lyte SP; Test Conc(μM):ATP Conc(μM) 1:5
Sequence of kinases (Homo sapiens, UniProt P48729) (P48729 whole entry): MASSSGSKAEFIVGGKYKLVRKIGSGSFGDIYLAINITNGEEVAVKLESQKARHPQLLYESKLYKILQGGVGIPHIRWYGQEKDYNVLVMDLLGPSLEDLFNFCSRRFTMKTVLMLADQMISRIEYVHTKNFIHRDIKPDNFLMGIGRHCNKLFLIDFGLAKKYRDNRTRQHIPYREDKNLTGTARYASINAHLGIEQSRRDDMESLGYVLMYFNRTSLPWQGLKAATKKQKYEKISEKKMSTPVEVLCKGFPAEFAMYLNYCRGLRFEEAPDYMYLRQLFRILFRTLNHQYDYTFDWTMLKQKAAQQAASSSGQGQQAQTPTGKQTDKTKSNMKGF

kinases [8] = target: kinases (Homo sapiens, UniProt Q9Y3S1); format: biochemical; details: WNK2 FRET-Lantha SP; Test Conc(μM) 1
kinases [9] = target: kinases (Homo sapiens, UniProt P10721); format: biochemical; details: KIT *Mn* FRET-Z-Lyte SP
Sequence of kinases (Homo sapiens, UniProt P10721) (P10721 26-976): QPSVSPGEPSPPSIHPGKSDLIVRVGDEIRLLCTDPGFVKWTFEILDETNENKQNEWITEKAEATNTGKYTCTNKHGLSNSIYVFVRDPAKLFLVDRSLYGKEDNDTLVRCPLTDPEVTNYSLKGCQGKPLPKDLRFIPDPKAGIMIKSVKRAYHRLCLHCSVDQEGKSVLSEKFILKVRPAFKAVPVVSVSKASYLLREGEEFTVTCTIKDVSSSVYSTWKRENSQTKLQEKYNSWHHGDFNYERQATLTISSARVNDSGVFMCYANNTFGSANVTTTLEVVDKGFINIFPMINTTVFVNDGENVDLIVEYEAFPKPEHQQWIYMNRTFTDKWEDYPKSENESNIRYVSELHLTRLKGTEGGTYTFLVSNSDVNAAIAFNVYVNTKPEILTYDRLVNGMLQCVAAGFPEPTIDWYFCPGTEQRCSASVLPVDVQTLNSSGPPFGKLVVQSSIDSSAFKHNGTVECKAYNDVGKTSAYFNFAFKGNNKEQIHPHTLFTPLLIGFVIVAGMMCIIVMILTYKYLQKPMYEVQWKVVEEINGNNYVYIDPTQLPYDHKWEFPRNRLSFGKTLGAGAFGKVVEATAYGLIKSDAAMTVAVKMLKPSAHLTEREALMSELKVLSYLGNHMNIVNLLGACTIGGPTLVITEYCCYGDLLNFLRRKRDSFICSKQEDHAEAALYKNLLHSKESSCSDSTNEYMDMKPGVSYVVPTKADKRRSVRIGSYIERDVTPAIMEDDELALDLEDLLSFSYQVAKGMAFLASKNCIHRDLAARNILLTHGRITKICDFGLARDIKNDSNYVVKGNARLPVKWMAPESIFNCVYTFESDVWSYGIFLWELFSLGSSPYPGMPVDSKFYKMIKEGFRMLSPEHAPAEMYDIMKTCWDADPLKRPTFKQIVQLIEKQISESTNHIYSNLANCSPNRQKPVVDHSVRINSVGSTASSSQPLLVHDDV

kinases [10] = target: kinases (Homo sapiens, UniProt P08631); format: biochemical; details: HCK FRET-Z-Lyte SP; Test Conc(μM):ATP Conc(μM) 1:25
kinases [11] = target: kinases (Homo sapiens, UniProt Q9Y2H1); format: biochemical; details: STK38L (NDR2) FRET-Lantha SP; Test Conc(μM) 1
kinases [12] = target: kinases (Homo sapiens, UniProt Q00535); format: biochemical
Sequence of kinases (Homo sapiens, UniProt Q00535) (Q00535 whole entry): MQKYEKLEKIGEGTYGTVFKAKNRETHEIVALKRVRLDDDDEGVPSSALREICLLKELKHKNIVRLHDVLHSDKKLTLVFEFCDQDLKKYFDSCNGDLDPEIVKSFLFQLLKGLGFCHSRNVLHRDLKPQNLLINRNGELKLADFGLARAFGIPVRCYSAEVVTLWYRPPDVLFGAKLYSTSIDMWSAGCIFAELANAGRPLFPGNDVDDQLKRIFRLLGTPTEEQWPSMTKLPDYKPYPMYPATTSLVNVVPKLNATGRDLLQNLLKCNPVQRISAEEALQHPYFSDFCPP

kinases [13] = target: kinases (Homo sapiens, UniProt Q92918); format: biochemical; details: MAP4K1 (HPK1) FRET-Lantha SP; Test Conc(μM) 1
Sequence of kinases (Homo sapiens, UniProt Q92918) (Q92918 whole entry): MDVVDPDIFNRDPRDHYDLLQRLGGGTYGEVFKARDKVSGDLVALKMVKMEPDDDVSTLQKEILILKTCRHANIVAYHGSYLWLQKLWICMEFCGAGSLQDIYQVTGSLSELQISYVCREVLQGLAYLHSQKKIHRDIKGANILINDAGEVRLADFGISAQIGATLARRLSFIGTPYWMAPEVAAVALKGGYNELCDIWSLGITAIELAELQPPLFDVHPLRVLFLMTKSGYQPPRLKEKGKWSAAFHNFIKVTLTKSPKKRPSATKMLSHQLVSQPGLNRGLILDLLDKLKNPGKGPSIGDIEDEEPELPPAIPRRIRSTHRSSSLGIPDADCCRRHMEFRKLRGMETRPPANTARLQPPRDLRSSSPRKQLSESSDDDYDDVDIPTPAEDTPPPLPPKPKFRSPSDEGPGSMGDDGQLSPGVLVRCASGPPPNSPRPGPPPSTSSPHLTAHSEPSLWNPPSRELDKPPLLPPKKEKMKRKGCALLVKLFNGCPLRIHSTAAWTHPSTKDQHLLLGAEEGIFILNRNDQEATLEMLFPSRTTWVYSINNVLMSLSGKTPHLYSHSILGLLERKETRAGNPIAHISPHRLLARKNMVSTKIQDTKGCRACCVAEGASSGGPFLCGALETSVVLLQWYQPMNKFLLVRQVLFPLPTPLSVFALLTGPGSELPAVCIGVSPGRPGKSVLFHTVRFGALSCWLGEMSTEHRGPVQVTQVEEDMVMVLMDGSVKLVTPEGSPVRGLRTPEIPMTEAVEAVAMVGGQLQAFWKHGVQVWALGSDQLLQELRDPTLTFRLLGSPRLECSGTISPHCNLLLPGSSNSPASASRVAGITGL

kinases [14] = target: kinases (Homo sapiens, UniProt Q9NR20); format: biochemical; details: DYRK4 FRET-Z-Lyte SP; Test Conc(μM):ATP Conc(μM) 1:5
Sequence of kinases (Homo sapiens, UniProt Q9NR20) (Q9NR20 whole entry): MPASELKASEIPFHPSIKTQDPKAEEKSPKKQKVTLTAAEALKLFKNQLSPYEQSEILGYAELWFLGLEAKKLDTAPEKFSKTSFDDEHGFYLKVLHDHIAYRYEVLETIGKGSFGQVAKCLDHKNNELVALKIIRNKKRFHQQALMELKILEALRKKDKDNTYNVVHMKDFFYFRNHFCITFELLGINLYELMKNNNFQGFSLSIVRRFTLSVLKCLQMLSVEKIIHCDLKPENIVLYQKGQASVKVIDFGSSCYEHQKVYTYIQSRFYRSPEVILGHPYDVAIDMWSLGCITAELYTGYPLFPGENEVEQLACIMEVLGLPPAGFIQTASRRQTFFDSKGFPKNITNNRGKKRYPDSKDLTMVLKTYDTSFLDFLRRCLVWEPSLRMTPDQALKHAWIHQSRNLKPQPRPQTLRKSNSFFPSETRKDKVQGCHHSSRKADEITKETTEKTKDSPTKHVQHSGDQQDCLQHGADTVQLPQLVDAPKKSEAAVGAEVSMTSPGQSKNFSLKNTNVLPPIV

kinases [15] = target: kinases (Homo sapiens, UniProt Q05513); format: biochemical; details: PRKCZ (PKC zeta) Z-Lyte SP; Test Conc(μM):ATP Conc(μM) 1:5
Sequence of kinases (Homo sapiens, UniProt Q05513) (Q05513 whole entry): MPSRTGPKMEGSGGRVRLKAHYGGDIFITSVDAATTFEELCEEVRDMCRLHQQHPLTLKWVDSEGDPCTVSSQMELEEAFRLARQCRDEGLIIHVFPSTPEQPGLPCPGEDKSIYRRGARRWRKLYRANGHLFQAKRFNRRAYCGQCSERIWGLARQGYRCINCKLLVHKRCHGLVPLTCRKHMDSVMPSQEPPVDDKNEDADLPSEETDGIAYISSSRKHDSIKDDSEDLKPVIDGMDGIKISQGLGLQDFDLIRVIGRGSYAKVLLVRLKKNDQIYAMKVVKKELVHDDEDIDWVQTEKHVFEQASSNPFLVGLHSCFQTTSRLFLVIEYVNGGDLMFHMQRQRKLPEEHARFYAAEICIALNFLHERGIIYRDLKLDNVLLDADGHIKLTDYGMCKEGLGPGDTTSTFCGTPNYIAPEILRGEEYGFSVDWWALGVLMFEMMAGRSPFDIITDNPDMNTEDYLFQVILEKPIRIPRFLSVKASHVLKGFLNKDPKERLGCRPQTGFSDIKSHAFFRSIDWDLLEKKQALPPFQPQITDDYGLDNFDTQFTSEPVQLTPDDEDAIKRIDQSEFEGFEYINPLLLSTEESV

[16] = pharmacokinetic properties in vivo
[17] = CDK5 (Inactive) FRET-Lantha SP, Test Conc(μM) 1
[18] = CDK5/p25 FRET-Z-Lyte SP, Test Conc(μM):ATP Conc(μM) 1:10
[19] = CDK5/p35 FRET-Z-Lyte SP, Test Conc(μM):ATP Conc(μM) 1:10

| SMILES | contractile parameters / force of contraction (immature hCOs) | cell cycle progression and mitosis of cardiomyocytes (pH3+) (mature hCOs [1]) | Ki-67+ cardiomyocytes (mature hCOs [2]) | proliferative response (Ki-67 intensity) with 10 μM simvastatin (mature hCOs [2]) | proliferation above the optimal concentrations (mature hCOs [2]) | Mean Inhib (%) (kinases [3]) | Mean Inhib (%) (kinases [4]) | Mean Inhib (%) (kinases [6]) | Mean Inhib (%) (kinases [7]) | Mean Inhib (%) (kinases [8]) | Mean Inhib (%) (kinases [10]) | Mean Inhib (%) (kinases [11]) | Mean Inhib (%) (kinases [12]; [17]) | Mean Inhib (%) (kinases [12]; [18]) | Mean Inhib (%) (kinases [12]; [19]) | Mean Inhib (%) (kinases [13]) | Mean Inhib (%) (kinases [14]) | Mean Inhib (%) (kinases [15]) | pharmacokinetic properties [16] | further results |
| --- | --- | --- | --- | --- | --- | --- | --- | --- | --- | --- | --- | --- | --- | --- | --- | --- | --- | --- | --- | --- |
| Cc1ccc(NC(=O)c2ccnc(N3CCOCC3)c2)cc1Nc1ccnc(N2CC(C)OC(C)C2)n1 (stereo not shown) [compound 3] | without affecting contractile parameters | promoted cell cycle progression and mitosis | increased | abolished | no further increase | 6.1% | 5.2% | 14.2% | 4.2% | 9.6% | 6.4% | 15.6% | 5.2% | 2.0% | 0.9% | −1.6% | 0.9% | 12.0% | poor | Ki-67+ cardiomyocytes with 10 μM simvastatin (mature hCOs [2]; 3 μM compound 3): abolished; Mean Inhib (%) (kinases [5]; PIP5K1B FRET-Adapta SP): 4.5%; Mean Inhib (%) (kinases [9]; Test Conc(μM):ATP Conc(μM) 1:300): 0.0% |
| Cc1cc(Oc2ccnc(Nc3ccc(S(N)(=O)=O)cc3)c2)c(-c2ccccn2)nc1C [compound 65] | without affecting contractile parameters | promoted cell cycle progression and mitosis | increased | abolished | no further increase | 2.4% | 14.8% | 3.6% | 4.1% | 5.8% | 30.9% | 5.5% | 17.2% | 8.0% | 2.5% | 11.3% | −4.9% | −22.4% | poor | PIP5K1B FRET-Adapta SP Mean Mean Inhib (%) (kinases [5]; PIP5K1B): 2.1%; Mean Inhib (%) (kinases [9]; Test Conc(μM):ATP Conc(μM) 0.25): 8.8% |
